Reference: paper PMC4627656, “Combining Metabolite-Based Pharmacophores with Bayesian Machine Learning Models for Mycobacterium tuberculosis Drug Discovery” (PLoS ONE, 2015)
≈ marks a conversion by molar mass, not a printed value. Read-outs that look alike come from different tables or passages of the source.

Tests used:
Mtb H37Rv strain = experiment: Resazurin (Alamar Blue) MIC assay against replicating Mtb; format: cell-based, Mycobacterium tuberculosis; settings: for MIC: Mycobacterium tuberculosis, H37RV
in vitro = settings: African green monkey
[1] = synthesized BAS 00623753 and arylamide analogs (Table 1), read-out: Mtb MIC (H37Rv)
[2] = in vitro cultured Mtb H37Rv, lowest concentration inhibiting ≥90% growth, initial hits, quinoxaline di-N-oxides, positive controls
[3] = synthesized BAS 00623753 and arylamide analogs (Table 1)
[4] = in vitro cultured Mtb H37Rv, lowest concentration inhibiting ≥90% growth, initial hits, quinoxaline di-N-oxides, positive controls, read-out: Mtb MIC (H37Rv)

SMILES | Mtb MIC (H37Rv) (Mtb H37Rv strain; [2]) [µg/mL] | MIC (Mtb H37Rv strain; [4]) [µg/mL] | also measured
CC(C)(NC(=O)c1ccccc1[N+](=O)[O-])c1ncccn1 [JSF-2176] | – | – | MIC (Mtb H37Rv strain; [1]): > 50 µg/mL
CC(C)=CCCC(=O)c1c(C)[n+]([O-])c2cc(Cl)c(Cl)cc2[n+]1[O-] [SRI57] | 1.25 | – | MIC (Mtb H37Rv strain; read-out: Mtb MIC (H37Rv), in vitro cultured Mtb H37Rv, lowest concentration inhibiting ≥90% growth, initial hits, quinoxaline di-N-oxides, positive controls): 1.2 µg/mL (≈ 3.38 µM); CC50 at 72 h (in vitro): > 40 µg/mL
O=C(NCc1ccccn1)c1ccccc1 [JSF-2133] | – | – | Mtb MIC (H37Rv) (Mtb H37Rv strain; [3]): >50 µg/mL
Cc1c(C(=O)CC(C)C)[n+]([O-])c2cc(Cl)ccc2[n+]1[O-] [SRI18] | – | 10 (≈ 33.9 µM) | –
O=C(NCc1cnccn1)c1ccccc1[N+](=O)[O-] [JSF-2171] | – | – | Mtb MIC (H37Rv) (Mtb H37Rv strain; [3]): >50 µg/mL
Cc1c(C(=O)c2ccccc2)[n+]([O-])c2ccc(Cl)cc2[n+]1[O-] [SRI7] | 5 | – | –
Cc1cccnc1CNC(=O)c1ccccc1[N+](=O)[O-] [JSF-2172] | – | – | Mtb MIC (H37Rv) (Mtb H37Rv strain; [3]): >50 µg/mL
Cc1ccc2c(c1)[n+]([O-])c(C)c(C(=O)C(F)(F)F)[n+]2[O-] [SRI14] | 10 | – | –
CC(C)=CCC/C(C)=C/CCC(=O)c1c(C)[n+]([O-])c2ccccc2[n+]1[O-] [SRI51] | 5 | – | –
CCC(=O)c1c(CC)[n+]([O-])c2cc(C)ccc2[n+]1[O-] [SRI32] | – | 5 (≈ 19.2 µM) | –
O=C(NCc1ccncn1)c1ccccc1[N+](=O)[O-] [JSF-2177] | – | – | Mtb MIC (H37Rv) (Mtb H37Rv strain; [3]): >50 µg/mL
CC(C)=CCCC(=O)c1c(C)[n+]([O-])c2cc(C)ccc2[n+]1[O-] [SRI36] | 10 | – | –
CCCCCC(=O)c1c(C)[n+]([O-])c2ccc(OC)cc2[n+]1[O-] [SRI40] | >40 | – | –
O=C(NCc1ccccn1)c1ccccc1[N+](=O)[O-] [BAS 00623753, 2-nitro-N-pyridin-2-ylmethyl-benzamide] | 5 | 5 (≈ 19.4 µM) | MIC (Mtb H37Rv strain; read-out: Mtb MIC (H37Rv), synthesized BAS 00623753 and arylamide analogs (Table 1)): ≥ 50 µg/mL
Cc1ccc(CNC(=O)c2ccccc2[N+](=O)[O-])nc1 [JSF-2175] | – | – | Mtb MIC (H37Rv) (Mtb H37Rv strain; [3]): >50 µg/mL
CCCCC(=O)c1c(C)[n+]([O-])c2ccc(Cl)cc2[n+]1[O-] [SRI17] | – | 2.5 (≈ 8.48 µM) | –
COc1ccc2c(c1)[n+]([O-])c(C(=O)CC(C)C)c(C)[n+]2[O-] [SRI43] | – | 20 (≈ 68.9 µM) | –
C=CCCC(=O)c1c(C)[n+]([O-])c2cc(Cl)ccc2[n+]1[O-] [SRI22] | – | 5 (≈ 17.1 µM) | –
CCCCCC(=O)c1c(C)[n+]([O-])c2cc(Cl)ccc2[n+]1[O-] [SRI20] | – | 5 (≈ 16.2 µM) | –
Cc1ccnc(CNC(=O)c2ccccc2[N+](=O)[O-])c1 [JSF-2173] | – | – | Mtb MIC (H37Rv) (Mtb H37Rv strain; [3]): >50 µg/mL
Cc1c(C(=O)c2ccccc2)[n+]([O-])c2ccc([N+](=O)[O-])cc2[n+]1[O-] [SRI10] | – | 5 (≈ 15.4 µM) | –
CCC(=O)c1c(CC)[n+]([O-])c2cc(Cl)ccc2[n+]1[O-] [SRI23] | – | 5 (≈ 17.8 µM) | –
CC(=O)c1c(C)[n+]([O-])c2cc([N+](=O)[O-])ccc2[n+]1[O-] [SRI5] | 2.5 | – | –
Cc1c(C(=O)CC(C)C)[n+]([O-])c2cc(Cl)c(Cl)cc2[n+]1[O-] [SRI60] | 2.5 | – | –

SMILES | Mtb MIC (H37Rv) (Mtb H37Rv strain; [2]) [µg/mL] | MIC (Mtb H37Rv strain; [4]) [µg/mL] | also measured
c1coc(CNCc2c[nH]c3ccccc23)c1 [BAS 7571651, furan-2-ylmethyl-(1H-indol-3-ylmethyl)-amine] | – | 40 (≈ 177 µM) | –
Cc1ccc2c(c1)[n+]([O-])c(C)c(C(=O)CC(C)C)[n+]2[O-] [SRI34] | – | 20 (≈ 72.9 µM) | –
Cc1ccc2c(c1)[n+]([O-])c(C)c(C(=O)c1ccccc1)[n+]2[O-] [SRI6] | >40 | – | –
COc1ccc2c(c1)[n+]([O-])c(C(=O)c1cccnc1)c(C)[n+]2[O-] [SRI12] | – | 0.64 (≈ 2.06 µM) | CC50 at 72 h (in vitro): 1.7 µg/mL (≈ 5.46 µM)
Cc1c(C(=O)C2CC2)[n+]([O-])c2ccc(Cl)cc2[n+]1[O-] [SRI25] | – | 5 (≈ 17.9 µM) | –
O=C(NCc1ncccn1)c1ccccc1[N+](=O)[O-] [JSF-2178] | – | – | MIC (Mtb H37Rv strain; [1]): > 50 µg/mL
Cc1c(C(=O)c2ccccc2)[n+]([O-])c2cc(Cl)c(Cl)cc2[n+]1[O-] [SRI62] | 2.5 | – | –
O=C(NCc1ccccn1)c1ccccc1[N+](=O)[O-] [JSF-2210] | – | – | Mtb MIC (H37Rv) (Mtb H37Rv strain; [3]): >50 µg/mL
CC(C)=CCC/C(C)=C/CCC(=O)c1c(C)[n+]([O-])c2ccc(Cl)cc2[n+]1[O-] [SRI49] | 5 | – | –
Cc1c(C(=O)C(C)C)[n+]([O-])c2cc(Cl)ccc2[n+]1[O-] [SRI28] | – | 10 (≈ 35.6 µM) | –
Cc1c(C(=O)c2ccccc2)[n+]([O-])c2cc(Cl)ccc2[n+]1[O-] [SRI8] | – | 10 (≈ 31.8 µM) | –
COc1ccc2c(c1)[n+]([O-])c(C)c(C(=O)c1ccccc1)[n+]2[O-] [SRI9] | – | 5 (≈ 16.1 µM) | –
Cc1c(C(=O)c2cccnc2)[n+]([O-])c2ccc(Cl)cc2[n+]1[O-] [SRI11] | 10 | – | –
C=CCCC(=O)c1c(C)[n+]([O-])c2cc(C)ccc2[n+]1[O-] [SRI35] | 4.3 | – | –
CC(C)=CCC/C(C)=C/CCC(=O)c1c(C)[n+]([O-])c2ccc(C)cc2[n+]1[O-] [SRI48] | – | 5 (≈ 13.6 µM) | –
Cc1c(C(=O)O)[n+]([O-])c2ccccc2[n+]1[O-] [SRI53] | >40 | > 40 | –
COc1ccc2c(c1)[n+]([O-])c(C(=O)CCC=C(C)C)c(C)[n+]2[O-] [SRI45] | 20 | – | –
COc1ccc2c(c1)[n+]([O-])c(C(=O)CC/C=C(\C)CCC=C(C)C)c(C)[n+]2[O-] [SRI47] | 20 | – | –
CCC(=O)c1c(C)[n+]([O-])c2ccc(OC)cc2[n+]1[O-] [SRI46] | 20 | – | –
CCCCCC(=O)c1c(C)[n+]([O-])c2ccc(Cl)cc2[n+]1[O-] [SRI21] | 10 | – | –
O=C(NCCc1ccccn1)c1ccccc1[N+](=O)[O-] [JSF-2170] | – | – | Mtb MIC (H37Rv) (Mtb H37Rv strain; [3]): >50 µg/mL
COc1ccc2c(c1)[n+]([O-])c(C)c(C(=O)C(F)(F)F)[n+]2[O-] [SRI15] | 10 | – | –
CC(=O)c1c(C)[n+]([O-])c2ccc(C)cc2[n+]1[O-] [SRI2] | 5.0 | – | –
CCCCC(=O)c1c(C)[n+]([O-])c2cc(Cl)ccc2[n+]1[O-] [SRI16] | 5 | – | –

SMILES | Mtb MIC (H37Rv) (Mtb H37Rv strain; [2]) [µg/mL] | MIC (Mtb H37Rv strain; [4]) [µg/mL] | also measured
Cc1c(C(=O)CC(C)C)[n+]([O-])c2ccc(Cl)cc2[n+]1[O-] [SRI19] | 5 | – | –
CCCCCC(=O)c1c(C)[n+]([O-])c2cc(Cl)c(Cl)cc2[n+]1[O-] [SRI59] | 2.5 | – | –
O=C(NCc1ccccn1)c1ccccc1C(F)(F)F [JSF-2211] | – | – | Mtb MIC (H37Rv) (Mtb H37Rv strain; [3]): >50 µg/mL
O=C(NCc1ccc(Cl)cn1)c1ccccc1[N+](=O)[O-] [JSF-2174] | – | – | Mtb MIC (H37Rv) (Mtb H37Rv strain; [3]): >50 µg/mL
CCC(=O)c1c(C)[n+]([O-])c2ccc(C)cc2[n+]1[O-] [SRI37] | 10 | – | –
NNC(=O)c1ccncc1 [isoniazid, reference compound] | – | 0.0031 to 0.012 (≈ 0.0226 to 0.0875 µM) | –
Cc1ccc2c(c1)[n+]([O-])c(C)c(C(=O)C1CC1)[n+]2[O-] [SRI33] | 5 | – | –
Cc1c(C(=O)C2CC2)[n+]([O-])c2cc(Cl)ccc2[n+]1[O-] [SRI26] | 5 | – | –
CCC(=O)c1c(CC)[n+]([O-])c2ccc(OC)cc2[n+]1[O-] [SRI41] | 40 | – | –
Cc1ccc2c(c1)[n+]([O-])c(C)c(C(=O)C(C)C)[n+]2[O-] [SRI38] | 10 | – | –
C=CCCC(=O)c1c(C)[n+]([O-])c2cc(Cl)c(Cl)cc2[n+]1[O-] [SRI61] | 2.5 | – | –
Cc1ccccc1C(=O)NCc1ccccn1 [JSF-2209] | – | – | Mtb MIC (H37Rv) (Mtb H37Rv strain; [3]): >50 µg/mL
CCCCC(=O)c1c(C)[n+]([O-])c2cc(C)ccc2[n+]1[O-] [SRI30] | – | 5 (≈ 18.2 µM) | –
CCCCC(=O)c1c(C)[n+]([O-])c2ccc(OC)cc2[n+]1[O-] [SRI39] | 10 | – | –
CO[C@H]1/C=C/O[C@@]2(C)Oc3c(C)c(O)c4c(O)c(c(/C=N/N5CCN(C)CC5)c(O)c4c3C2=O)NC(=O)/C(C)=C\C=C\[C@H](C)[C@H](O)[C@@H](C)[C@@H](O)[C@@H](C)[C@H](OC(C)=O)[C@@H]1C [Rifampicin, reference compound] | – | 0.0031 to 0.012 (≈ 0.00377 to 0.0146 µM) | –
COc1ccc2c(c1)[n+]([O-])c(C(C)=O)c(C)[n+]2[O-] [SRI3] | 10 | – | –
CC(C)=CCCC(=O)c1c(C)[n+]([O-])c2cc(Cl)ccc2[n+]1[O-] [SRI29] | 5 | – | –
CCCCCC(=O)c1c(C)[n+]([O-])c2cc(C)ccc2[n+]1[O-] [SRI31] | 20 | – | –
Cc1c(C(=O)c2cccnc2)[n+]([O-])c2ccc([N+](=O)[O-])cc2[n+]1[O-] [SRI13] | 20 | – | –
O=C(NCc1ccccn1)c1ccccc1F [JSF-2208] | – | – | Mtb MIC (H37Rv) (Mtb H37Rv strain; [3]): >50 µg/mL
Cc1c(C(=O)C(C)C)[n+]([O-])c2ccc(Cl)cc2[n+]1[O-] [SRI27] | – | > 40 | –
CCC(=O)c1c(CC)[n+]([O-])c2ccc(Cl)cc2[n+]1[O-] [SRI24] | – | 10 (≈ 35.6 µM) | –
C=CCCC(=O)c1c(C)[n+]([O-])c2ccc(OC)cc2[n+]1[O-] [SRI44] | 20 | – | –
